Values joined by “and” are separate entries in the source; they are usually repeats but may differ in a detail not shown here. Equal entries are not always repeated.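 In this assay, cells in 96-well plates receive the compound at five concentrations for 48 hours. Endpoints are linearly interpolated between the surrounding concentrations. GI50 is the concentration that inhibits growth by half. TGI: concentration producing complete growth inhibition.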
What was measured:
Assay in all cases: DTP human tumour cell line panel, 48 h
HOP-92 NSCLC = tested on: HOP-92 NSCLC
TK-10 renal = tested on: TK-10 renal
MDA-MB-231 breast = tested on: MDA-MB-231 breast
RPMI-8226 leukemia = tested on: RPMI-8226 leukemia
ACHN renal = tested on: ACHN renal
UO-31 renal = tested on: UO-31 renal
SK-MEL-5 melanoma = tested on: SK-MEL-5 melanoma
KM12 colon = tested on: KM12 colon
U251 CNS = tested on: U251 CNS
SNB-19 CNS = tested on: SNB-19 CNS

Compound	GI50 (HOP-92 NSCLC)	TGI (HOP-92 NSCLC)	GI50 (TK-10 renal)	TGI (TK-10 renal)	GI50 (MDA-MB-231 breast)	TGI (MDA-MB-231 breast)	GI50 (RPMI-8226 leukemia)	TGI (RPMI-8226 leukemia)	GI50 (ACHN renal)	TGI (ACHN renal)	GI50 (UO-31 renal)	TGI (UO-31 renal)	GI50 (SK-MEL-5 melanoma)	TGI (SK-MEL-5 melanoma)	GI50 (KM12 colon)	TGI (KM12 colon)	GI50 (U251 CNS)	TGI (U251 CNS)	GI50 (SNB-19 CNS)	TGI (SNB-19 CNS)
Cn1cc(C2=C(c3c4n(c5ccccc35)CCCCC4)C(=O)NC2=O)c2ccccc21	1.48 µM	> 25 µM	6.38 µM	> 25 µM	6.42 µM	> 25 µM	6.88 µM	> 19.2 µM	6.05 µM	> 25 µM	5.75 µM	> 25 µM	2.66 µM	13.1 µM	2.97 µM	> 25 µM	6.61 µM	> 25 µM	> 18.1 µM	> 25 µM
O=C(Nc1ccccc1)c1c(O)[nH]c(=S)[nH]c1=O	–	45.1 µM	–	125 µM	–	94 µM	–	79 µM and > 25 µM	–	78.7 µM	65.4 µM	65.9 µM and 174 µM	40.5 µM	46 µM and 85.2 µM	69.9 µM	111 µM and > 250 µM	66.5 µM	109 µM and > 250 µM	40.7 µM	118 µM and > 250 µM
COc1cccc(-c2cc(-c3cccc(NS(C)(=O)=O)c3)nc(N)c2C#N)c1O	3.19 µM	> 31.5 µM	0.5 µM	> 100 µM	0.815 µM	> 100 µM	0.268 µM	11.8 µM	0.846 µM	> 100 µM	0.208 µM	> 52.7 µM	0.0747 µM	3.93 µM	0.107 µM	> 100 µM	0.127 µM	> 100 µM	0.486 µM	> 100 µM
Cc1cnc(NCCCN(C)C)c2c1[nH]c1ccc3cc(O)ccc3c12	–	1.31 µM	–	15.8 µM	–	2.83 µM	–	10.1 µM	–	4.89 µM	–	5.8 µM	–	2.2 µM	–	10 µM	–	1.02 µM	–	3.12 µM
CCN(CC)N=Nc1c(C(N)=O)n[nH]c1C	–	87.8 µM	–	> 100 µM	–	> 100 µM	–	> 100 µM	–	> 100 µM	–	> 100 µM	–	> 100 µM	–	> 100 µM	–	> 100 µM	–	> 100 µM
C=CCOc1ccc2c(C)cc(=O)oc2c1C	–	> 100 µM	–	–	–	> 100 µM	–	> 100 µM	–	> 100 µM	–	> 100 µM	–	> 100 µM	–	> 100 µM	–	> 100 µM	–	> 100 µM
Fc1[nH]nc2ccc([C@@H]3Nc4ccc5[nH]ncc5c4[C@H]4C5CCC(C5)[C@@H]34)cc12 (some centres undefined)	2 µM	14.2 µM	3.51 µM	15.5 µM	1.97 µM	17.5 µM	1.42 µM	16.7 µM	1.52 µM	13.6 µM	2.83 µM	14.1 µM	1.94 µM	12.4 µM	0.559 µM	11.5 µM	1.02 µM	13.5 µM	1.22 µM	18.1 µM
CN1CCCCC1CCN1c2ccccc2Sc2ccc(Cl)cc21 (centres undefined)	1.35 µM	5.18 µM	2.27 µM	7.09 µM	2.09 µM	6.32 µM	3.17 µM	9.29 µM	3.3 µM	12.9 µM	2.92 µM	12.7 µM	1.7 µM	3.25 µM	2.77 µM	7.38 µM	2.59 µM	6.76 µM	6.7 µM	21.5 µM
COc1cccc(C2c3cc4c(cc3OC(C)(N3CCCC3)C2C)OCO4)c1O (centres undefined)	–	71.4 µM	–	77.1 µM	–	18.4 µM	–	36.5 µM	–	> 83.1 µM	–	56.4 µM	–	13.3 µM	–	27.4 µM	–	53.8 µM	–	> 100 µM
Nc1c(C(=O)c2cccc(CCS(N)(=O)=O)c2)cnn1-c1ccc(F)cc1	> 25 µM	> 25 µM	> 25 µM	> 25 µM	> 25 µM	> 25 µM	> 25 µM	> 25 µM	> 25 µM	> 25 µM	> 25 µM	> 25 µM	> 16.7 µM	> 25 µM	> 25 µM	> 25 µM	> 25 µM	> 25 µM	> 25 µM	> 25 µM
Cc1ccsc1C(=S)Nc1ccc(Cl)c(/C=N/OC(C)(C)C)c1	–	48.8 µM	–	41.1 µM	–	69.9 µM	–	> 100 µM	–	75.7 µM	–	> 100 µM	–	> 100 µM	–	> 100 µM	–	79.3 µM	–	> 100 µM
COC1/C=C/OC2(C)Oc3c(C)c(O)c4c(O)c(c(/C=N/Nc5ccc([N+](=O)[O-])cc5[N+](=O)[O-])c(O)c4c3C2=O)NC(=O)C(C)=C/C=C/C(C)C(O)C(C)C(O)C(C)C(OC(C)=O)C1C (centres undefined)	0.885 µM	2.04 µM	–	–	1.32 µM	4.01 µM	1.96 µM	14.5 µM	3.56 µM	11.4 µM	8.71 µM	23.6 µM	1.29 µM	3.75 µM	1.71 µM	6.68 µM	1.3 µM	3.55 µM	3.92 µM	18.1 µM
COC([CH2][Hg][n]1cnc2c1c(=O)n(C)c(=O)n2C)CN1C(=O)c2ccccc2S1(=O)=O (centres undefined)	> 100 µM	> 100 µM	> 100 µM	> 100 µM	> 100 µM	> 100 µM	> 100 µM	> 100 µM	> 100 µM	> 100 µM	> 100 µM	> 100 µM	> 100 µM	> 100 µM	> 100 µM	> 100 µM	> 100 µM	> 100 µM	> 100 µM	> 100 µM
COc1cc(/C=N\NC(=O)CN2CCN(c3cc4c(cc3F)c(=O)c(C(=O)N/N=C/c3cc(OC)c(OC)c(OC)c3)cn4C3CC3)CC2)cc(OC)c1OC	0.198 µM	0.674 µM	> 100 µM	> 100 µM	0.25 µM	0.781 µM	0.299 µM	–	> 100 µM	> 100 µM	> 100 µM	> 100 µM	0.417 µM	5.1 µM	–	–	0.328 µM	> 100 µM	0.445 µM	> 100 µM

From PubChem BioAssay (NCI)
